Experiment: Phase 1 multiple ascending dose study of grapiprant tablets: serum pharmacokinetics
Assay type: in vivo, human
Conditions: for Rac (Day 14/Day 1) / half-life / Cmax / AUC(0-t): mean; for increase of mean systemic exposure (AUC and Cmax) with dose: 14 days; for half-life / Cmax / AUC(0-t) / Tmax: human, oral, serum; for Tmax: median
From the text: Serum pharmacokinetic parameters can be computed using WinNonlin Version 3.2 (Pharsight®, Mountain View, Calif.) using standard non-compartmental methods. As used herein, the term “Cmax” refers to the maximum observed serum concentration of grapiprant estimated directly from concentration versus time data. As used herein, the term “Tmax” refers to the time of the first occurrence of Cmax. As used herein, the term “AUC(0-tlast)” refers to the area under the serum concentration vs. time curve from time 0 to Tlast (the time of the last quantifiable concentration estimated using the linear/log trapezoidal approximation). When data permitted, the terminal elimination rate constant (kel) was estimated using linear least-square regression analysis of the serum concentration-time data obtained during the terminal log-linear phase. As used herein, the term “AUC(0-inf)” refers to AUC(0-tlast) extrapolated to infinity, which is calculated as the sum of AUC(0-tlast) and Cest/kel, wherein Cest is the predicted plasma concentration obtained from the log linear regression analysis at the last quantifiable time point. As used herein, the term “t½” refers to terminal phase half-life calculated as ln(2)/kel. As used herein, the term “AUC(last-inf)” refers to the area under the serum concentration versus time curve from Tlast to infinity, which is estimated as Cpest/kel, wherein Cpest represented the estimated concentration at time Tlast based on the aforementioned regression analysis. As used herein, the term “AUCτ” refers to the area under the serum concentration versus time curve over the dosing interval. As used herein, the term “Rac” refers to the accumulation ratio of grapiprant in the serum, which is calculated as a measure of drug accumulation at steady state compared to Day 1. Rac for the 14 day oral administration described herein is calculated using the equation: Rac=(Day 14 AUCτ/Day 1 AUCτ). Rac for the 17 day oral administration described herein is calculated using the equation: Rac=(Day 17 AUCτ/Day 1 AUCτ). Day 17 is used as steady state in the elderly group of subjects, which is Day 14 of the multiple dosing period for these subjects.
As used herein, the terms “cohort 1”, “cohort 2”, and “cohort 3” refer to studies where grapiprant tablets are administered at dosage levels of 50 mg, 150 mg, and 300 mg, respectively, in healthy adult subjects with a 14 day oral administration regimen as follows: one dose in the morning in a fasting state on day 1; twice daily (BID, approximately every 12 hours) on days 2 through 13: one dose in a fasting state in the morning, and one dose in the evening on an empty stomach; and one dose in the morning in a fasting state on day 14.
As used herein, the term “cohort 5” and/or “cohort 6” refers to a study where grapiprant tablets are administered at a dosage level of 250 mg in elderly subjects with minor renal impairment with a 17 day oral administration regimen as follows: one dose in the morning in a fasting state on day 1; twice daily (BID, approximately every 12 hours) on days 4 through 16: one dose in a fasting state in the morning, and one dose in the evening on an empty stomach; and one dose in the morning in a fasting state on day 17.
Dosing and Duration: In Cohorts 1-3, study medication was administered once daily in the morning on Days 1 and 14, and twice daily (BID, approximately every 12 hours) on Days 2 through 13. In Cohorts 5 and 6, study medication was administered once daily in the morning on Day 1, BID on Days […] through 16, and once in the morning on Day 17. In all cohorts dosing was to be in the fasting state for the morning dose and on an “empty stomach” for the evening dose.
Pharmacokinetic Evaluations: Serial blood samples for serum PK evaluations of grapiprant began prior to dosing on Day 1 and continued until 48 hours following Day 14 dosing (Cohorts 1-3) or until 24 hours following Day 17 dosing (Cohorts 5 and 6). […]

[1] = 50 mg, 50 mg BID tablets, Day 1, healthy adults
[2] = 50 mg, 50 mg BID tablets, Day 14, healthy adults
[3] = 150 mg, 150 mg BID tablets, Day 1, healthy adults
[4] = 150 mg, 150 mg BID tablets, Day 14, healthy adults
[5] = 250 mg, 250 mg BID tablets, Day 1, elderly with mild renal impairment
[6] = 250 mg, 250 mg BID tablets, Day 17, elderly with mild renal impairment
[7] = 300 mg, 300 mg BID tablets, Day 1, healthy adults
[8] = 300 mg, 300 mg BID tablets, Day 14, healthy adults

For `CCc1nc2c(C)nc(C)cc2n1-c1ccc(CCNC(=O)NS(=O)(=O)c2ccc(C)cc2)cc1` [Grapiprant, N-((4-(2-ethyl-4,6-dimethyl-1H-imidazo[4,5-c]pyridin-1-yl)phenethyl)carbamoyl)-4-methylbenzenesulfonamide], the “Rac (Day 14/Day 1)” value (50 mg BID tablets, Day 14 AUCT/Day 1 AUCT, healthy adults) was 1.13, the “Rac (Day 14/Day 1)” value (150 mg BID tablets, Day 14 AUCT/Day 1 AUCT, healthy adults) was 1.20 and the “Rac (Day 14/Day 1)” value (250 mg BID tablets, Day 17 AUCT/Day 1 AUCT, elderly with mild renal impairment) was 1.54. For the same molecule, the “mean exposure compared with the 300 mg BID healthy adult group” value (250 mg BID, elderly subjects with mild renal impairment) was “slightly greater”, the “Rac (Day 14/Day 1)” value (300 mg BID tablets, Day 14 AUCT/Day 1 AUCT, healthy adults) was 1.33 and the “increase of mean systemic exposure (AUC and Cmax) with dose” value (between 50 and 150 mg BID, tablets, healthy adults) was “approximately dose proportional”. For the same molecule, the “increase of mean exposures” value (dose increased 2-fold from 150 mg BID to 300 mg BID, healthy adults) was “approximately 3 fold”, the “increase of mean systemic exposure (AUC and Cmax) with dose” value (dose increased from 150 mg BID to 300 mg BID, healthy adults) was “greater than dose proportional increase” and the half-life (50 mg BID tablets, Day 14, healthy adults) was 6.47 h. It also gave a half-life (150 mg BID tablets, Day 14, healthy adults) of 9.71 h, a half-life (250 mg BID tablets, Day 1, elderly with mild renal impairment) of 8.63 h and a half-life (300 mg BID tablets, Day 14, healthy adults) of 8.76 h. It also gave a Cmax (50 mg, 50 mg BID tablets, Day 1 (n = 9), healthy adults) of 578 ng/mL, an AUC(0-t) [1] of 3150 ng·h/mL and a Tmax [1] of 1.5 h. It also gave a Cmax (50 mg, 50 mg BID tablets, Day 14 (n = 8), healthy adults) of 611 ng/mL, an AUC(0-t) [2] of 3370 ng·h/mL and a Tmax [2] of 1.25 h. It also gave a Cmax (150 mg, 150 mg BID tablets, Day 1 (n = 9), healthy adults) of 2150 ng/mL, an AUC(0-t) [3] of 8970 ng·h/mL and a Tmax [3] of 1.5 h. For the same molecule, the Cmax (150 mg, 150 mg BID tablets, Day 14 (n = 9), healthy adults) was 2670 ng/mL, the AUC(0-t) [4] was 10300 ng·h/mL and the Tmax [4] was 1.5 h. The Cmax (250 mg, 250 mg BID tablets, Day 1 (n = 15), elderly with mild renal impairment) was 10300 ng/mL, the AUC(0-t) [5] was 30100 ng·h/mL and the Tmax [5] was 1 h. It also gave a Cmax (250 mg, 250 mg BID tablets, Day 17 (n = 14), elderly with mild renal impairment) of 12300 ng/mL, an AUC(0-t) [6] of 40200 ng·h/mL and a Tmax [6] of 1 h. It also gave a Cmax (300 mg, 300 mg BID tablets, Day 1 (n = 9), healthy adults) of 8240 ng/mL, an AUC(0-t) [7] of 24900 ng·h/mL and a Tmax [7] of 1.5 h. The Cmax (300 mg, 300 mg BID tablets, Day 14 (n = 9), healthy adults) was 10400 ng/mL, the AUC(0-t) [8] was 32300 ng·h/mL and the Tmax [8] was 1 h.

— patent US20210353648A1, “GRAPIPRANT UNIT DOSAGE FORMS” (Arrys Therapeutics, Inc., priority 2018, published 2021)
